Some results are limits rather than exact numbers.

The EC50 is the concentration needed to bring the measured effect to its halfway point.

In assay [1] the target is T1, human CB2 receptors (Homo sapiens, UniProt P34972).
T1 construct: expressed in transfected cells; host or cells: CHO cells
Kind of assay: functional cAMP assay, human CB2. Format: cell-based. The following applies: CHO cells expressing human CB2, cAMP; read-out: human CB2 EC50. In outline:
(§1)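 Readout: TR-FRET cAMP detection at 730 and 645 nm with 355 nm excitation, quantified from a standard curve spanning 10 μM to 0.13 nM cAMP. Human CB1- or CB2-expressing CHO cells were exposed to compound for 30 min at 30 °C in KRB buffer containing 1 mM IBMX. EC50 derived.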
For orientation: Changes in cAMP serve as a functional read-out for many G protein-coupled receptors.

Assay [2] addresses T2, human CB1 receptors (Homo sapiens, UniProt P21554).
T2 construct: expressed in transfected cells; host or cells: CHO cells
In words: functional cAMP assay, human CB1. Particulars: CHO cells expressing human CB1, cAMP; read-out: human CB1 EC50. Format: cell-based. The procedure, abridged:
as §1

T2 sequence (P21554 whole entry): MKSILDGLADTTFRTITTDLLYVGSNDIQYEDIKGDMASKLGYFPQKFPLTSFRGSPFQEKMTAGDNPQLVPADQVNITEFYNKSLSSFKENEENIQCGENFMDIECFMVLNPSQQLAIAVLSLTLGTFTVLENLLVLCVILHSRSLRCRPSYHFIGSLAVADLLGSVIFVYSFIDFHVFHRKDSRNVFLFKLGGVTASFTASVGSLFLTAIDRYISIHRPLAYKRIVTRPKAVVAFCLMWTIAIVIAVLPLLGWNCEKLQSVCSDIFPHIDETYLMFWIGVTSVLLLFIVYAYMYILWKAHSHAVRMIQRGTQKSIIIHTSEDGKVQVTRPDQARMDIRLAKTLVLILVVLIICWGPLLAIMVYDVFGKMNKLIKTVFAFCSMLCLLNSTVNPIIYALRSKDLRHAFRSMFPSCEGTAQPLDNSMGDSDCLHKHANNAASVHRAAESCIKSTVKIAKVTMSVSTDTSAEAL
T1 sequence (P34972 whole entry): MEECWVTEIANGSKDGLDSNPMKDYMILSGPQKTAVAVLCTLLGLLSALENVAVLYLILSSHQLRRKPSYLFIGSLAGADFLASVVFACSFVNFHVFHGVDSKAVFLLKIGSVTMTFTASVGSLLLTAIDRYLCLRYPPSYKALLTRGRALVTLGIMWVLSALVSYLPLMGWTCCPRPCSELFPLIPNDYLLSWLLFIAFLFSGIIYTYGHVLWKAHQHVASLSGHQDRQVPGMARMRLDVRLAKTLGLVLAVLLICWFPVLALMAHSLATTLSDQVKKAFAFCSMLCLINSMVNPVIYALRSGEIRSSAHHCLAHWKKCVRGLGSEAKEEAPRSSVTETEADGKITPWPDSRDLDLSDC

In the case of `CC(C)(C)c1nc(N2CC[C@@](C)(O)C2)c2nnn(Cc3ccccc3S(C)(=O)=O)c2n1` [Example 223-b, (R)-1-(5-tert-butyl-3-(2-(methylsulfonyl)benzyl)-3H-[1,2,3]triazolo[4,5-d]pyrimidin-7-yl)-3-methylpyrrolidin-3-ol], the half-maximal effective concentration (EC50) was determined as 3 nM in assay [1] and 246 nM in assay [2].
For `CC(C)(C)c1nc(N2CCC(F)(F)C2)c2nnn(Cc3ncccc3Cl)c2n1` [Example 98, 5-tert-Butyl-3-(3-chloro-pyridin-2-ylmethyl)-7-(3,3-difluoro-pyrrolidin-1-yl)-3H-[1,2,3]triazolo[4,5-d]pyrimidine], the results for the EC50 in assay [1] and in assay [2] were 0.1 nM and 98 nM, respectively.
Take `Cc1nnc(Cn2nnc3c(N4CC[C@](C)(O)C4)nc(C(C)(C)C)nc32)o1` [Example 225-a, (S)-1-(5-tert-butyl-3-((5-methyl-1,3,4-oxadiazol-2-yl)methyl)-3H-[1,2,3]triazolo[4,5-d]pyrimidin-7-yl)-3-methylpyrrolidin-3-ol]: the EC50 is 29.1 nM in assay [1] and above 10000 nM in assay [2].
Turning to `CC(C)(C)c1nc(N2CCC(F)(F)C2)c2nnn(Cc3nnnn3C3CC3)c2n1` [Example 157, 5-tert-Butyl-3-(1-cyclopropyl-1H-tetrazol-5-ylmethyl)-7-(3,3-difluoro-pyrrolidin-1-yl)-3H-[1,2,3]triazolo[4,5-d]pyrimidine], the concentration giving a half-maximal response (EC50) was 0.1 nM in assay [1] and above 10000 nM in assay [2].
Regarding `CC(C)(C)c1nc(N2CC3(COC3)C2)c2nnn(Cc3nnnn3C3CC3)c2n1` [Example 183, 5-tert-Butyl-3-(1-cyclopropyl-1H-tetrazol-5-ylmethyl)-7-(2-oxa-6-aza-spiro[3.3]hept-6-yl)-3H-[1,2,3]triazolo[4,5-d]pyrimidine], the results for the EC50 in assay [1] and in assay [2] were 4.2 nM and above 10000 nM, respectively.
In the case of `CC(C)(C)c1nc(N2CC[C@](C)(O)C2)c2nnn(Cc3ccccc3C(F)(F)F)c2n1` [Example 222-a, (S)-1-(5-tert-butyl-3-(2-(trifluoromethyl)benzyl)-3H-[1,2,3]triazolo[4,5-d]pyrimidin-7-yl)-3-methylpyrrolidin-3-ol], the EC50 amounted to 0.8 nM in assay [1] and 894 nM in assay [2].
Take `CC(C)(C)c1nc(N2CCC2)c2nnn(Cc3ccccc3Cl)c2n1` [Example 11, 7-Azetidin-1-yl-5-tert-butyl-3-(2-chloro-benzyl)-3H-[1,2,3]triazolo[4,5-d]pyrimidine]: the concentration giving a half-maximal response (EC50) in assay [1] is 3.2 nM; in assay [2], 1090 nM.
Regarding `CC(C)(C)c1nc(N2CCC[C@H]2C#N)c2nnn(Cc3ccccc3Cl)c2n1` [Example 50, (S)-1-[5-tert-Butyl-3-(2-chloro-benzyl)-3H-[1,2,3]triazolo[4,5-d]pyrimidin-7-yl]-pyrrolidine-2-carbonitrile], the concentration for a half-maximal effect (EC50) in assay [1] is 1 nM; in assay [2], 139 nM.
Regarding `CC(C)(C)c1nc(N2CC[C@](C)(O)C2)c2nnn(Cc3ccccc3Cl)c2n1` [Example 221-a, (S)-1-(5-tert-butyl-3-(2-chlorobenzyl)-3H-[1,2,3]triazolo[4,5-d]pyrimidin-7-yl)-3-methylpyrrolidin-3-ol], the EC50 in assay [1] is 3 nM; in assay [2] it was 1800 nM.
In the case of `Cc1nonc1Cn1nnc2c(N3CC[C@](C)(O)C3)nc(C(C)(C)C)nc21` [Example 228-a, (S)-1-(5-tert-butyl-3-((4-methyl-1,2,5-oxadiazol-3-yl)methyl)-3H-[1,2,3]triazolo[4,5-d]pyrimidin-7-yl)-3-methylpyrrolidin-3-ol], the EC50 in assay [1] was 1.8 nM; in assay [2] it was above 10000 nM.
Regarding `CC(C)(C)c1nc(N2CC[C@H](O)[C@@H]2CO)c2nnn(Cc3ccccc3S(C)(=O)=O)c2n1` [Example 168, (2S,3S)-1-[5-tert-Butyl-3-(2-methanesulfonyl-benzyl)-3H-[1,2,3]triazolo[4,5-d]pyrimidin-7-yl]-2-hydroxymethyl-pyrrolidin-3-ol], the EC50 in assay [1] is 9.4 nM; in assay [2], above 10000 nM.
With `CC(C)(C)c1nc(N2CCC(F)(F)C2)c2nnn(Cc3ccncc3Cl)c2n1` [Example 129, 5-tert-Butyl-3-(3-chloro-pyridin-4-ylmethyl)-7-(3,3-difluoro-pyrrolidin-1-yl)-3H-[1,2,3]triazolo[4,5-d]pyrimidine], the half-maximal effective concentration (EC50) worked out at 0.1 nM in assay [1] and 670 nM in assay [2].
Turning to `CC(C)(C)c1nc(N2CCC(F)(F)C2)c2nnn(Cc3c(Cl)ccc(Cl)c3Cl)c2n1` [Example 119, 5-tert-Butyl-7-(3,3-difluoro-pyrrolidin-1-yl)-3-(2,3,6-trichloro-benzyl)-3H-[1,2,3]triazolo[4,5-d]pyrimidine], the EC50 came to 0.3 nM in assay [1] and 91 nM in assay [2].
Regarding `CC(C)(C)c1nc(N2CCC(F)(F)C2)c2nnn(C3CS(=O)(=O)C3)c2n1` [Example 125, 5-tert-Butyl-7-(3,3-difluoro-pyrrolidin-1-yl)-3-(1,1-dioxo-1λ^6-thietan-3-yl)-3H-[1,2,3]triazolo[4,5-d]pyrimidine], the results for the EC50 in assay [1] and in assay [2] were 1.9 nM and above 10000 nM, respectively.
On the same counts, the results for `C[C@@H](Oc1nc(C(C)(C)C)nc2c1nnn2Cc1ccccc1Cl)C(F)(F)F` [Example 216, 5-tert-Butyl-3-(2-chloro-benzyl)-7-((R)-2,2,2-trifluoro-1-methyl-ethoxy)-3H-[1,2,3]triazolo[4,5-d]pyrimidine] are 10.4 nM and above 10000 nM.
Regarding `Cc1nonc1Cn1nnc2c(N3CC4(COC4)C3)nc(C(C)(C)C)nc21` [Example 179, 5-tert-Butyl-3-(4-methyl-furazan-3-ylmethyl)-7-(2-oxa-6-aza-spiro[3.3]hept-6-yl)-3H-[1,2,3]triazolo[4,5-d]pyrimidine], the values for the half-maximal effective concentration (EC50) in assay [1] and in assay [2] were 2 nM and above 10000 nM, respectively.
Regarding `Cn1nnnc1Cn1nnc2c(N3CC[C@@](C)(O)C3)nc(C(C)(C)C)nc21` [Example 227-b, (R)-1-(5-tert-butyl-3-((1-methyl-1H-tetrazol-5-yl)methyl)-3H-[1,2,3]triazolo[4,5-d]pyrimidin-7-yl)-3-methylpyrrolidin-3-ol], the figures for the 50% effective concentration (EC50) in assay [1] and in assay [2] were 43.5 nM and above 10000 nM, respectively.
With `CC(C)(C)c1nc(N2CCCO2)c2nnn(Cc3ccccc3Cl)c2n1` [Example 40, 5-tert-Butyl-3-(2-chloro-benzyl)-7-isoxazolidin-2-yl-3H-[1,2,3]triazolo[4,5-d]pyrimidine], the EC50 was 11.6 nM in assay [1] and above 10000 nM in assay [2].
As for `CC(C)(C)c1nc(N2CC[C@@H](O)C2)c2nnn(Cc3ccccc3Cl)c2n1` [Example 27, (R)-1-[5-tert-Butyl-3-(2-chloro-benzyl)-3H-[1,2,3]triazolo[4,5-d]pyrimidin-7-yl]-pyrrolidin-3-ol], the figures for the concentration for a half-maximal effect (EC50) in assay [1] and in assay [2] were 5.1 nM and above 10000 nM, respectively.
`CC(C)(C)c1nc(N2CCC(F)(F)C2)c2nnn(CC(=O)c3ccccn3)c2n1` [Example 127, 2-[5-tert-Butyl-7-(3,3-difluoro-pyrrolidin-1-yl)-[1,2,3]triazolo[4,5-d]pyrimidin-3-yl]-1-pyridin-2-yl-ethanone]: the results for the EC50 in assay [1] and in assay [2] were 0.4 nM and above 10000 nM, respectively.
On the same counts, the results for `CC(C)(C)c1nc(N2CCC(F)(F)C2)c2nnn(Cc3cccc(Cl)c3)c2n1` [Example 65, 5-tert-Butyl-3-(3-chloro-benzyl)-7-(3,3-difluoro-pyrrolidin-1-yl)-3H-[1,2,3]triazolo[4,5-d]pyrimidine] are 0.9 nM and 220 nM.
In the case of `CC(C)(C)c1nc(N2CC3(COC3)C2)c2nnn(Cc3ccccc3Cl)c2n1` [Example 10, 5-tert-Butyl-3-(2-chloro-benzyl)-7-(2-oxa-6-aza-spiro[3.3]hept-6-yl)-3H-[1,2,3]triazolo[4,5-d]pyrimidine], the results for the EC50 in assay [1] and in assay [2] were 2.4 nM and 404 nM, respectively.
Take `COc1ccc(Cn2nnc3c(N4CC[C@H](O)C4)nc(C(C)(C)C)nc32)cc1` [Example 106, (S)-1-[5-tert-Butyl-3-(4-methoxy-benzyl)-3H-[1,2,3]triazolo[4,5-d]pyrimidin-7-yl]-pyrrolidin-3-ol]: the EC50 in assay [1] is 4.8 nM; in assay [2], above 10000 nM.
With `CC(C)(C)c1nc(N2CCC(F)(F)C2)c2nnn(Cc3c(F)ccc(F)c3Cl)c2n1` [Example 78, 5-tert-Butyl-3-(2-chloro-3,6-difluoro-benzyl)-7-(3,3-difluoro-pyrrolidin-1-yl)-3H-[1,2,3]triazolo[4,5-d]pyrimidine], the half-maximal effective concentration (EC50) in assay [1] was 0.1 nM; in assay [2], 143 nM.
On the same counts, the results for `Cc1nonc1Cn1nnc2c(N3CC[C@H](O)C3)nc(C(C)(C)C)nc21` [Example 136, (S)-1-[5-tert-Butyl-3-(4-methyl-furazan-3-ylmethyl)-3H-[1,2,3]triazolo[4,5-d]pyrimidin-7-yl]-pyrrolidin-3-ol] are 0.2 nM and above 10000 nM.
With `COC1CCN(c2nc(C(C)(C)C)nc3c2nnn3Cc2ccccc2Cl)C1` (centres unmarked) [Example 28, 5-tert-Butyl-3-(2-chloro-benzyl)-7-(3-methoxy-pyrrolidin-1-yl)-3H-[1,2,3]triazolo[4,5-d]pyrimidine], the EC50 in assay [1] is 11.2 nM; in assay [2], above 10000 nM.
As for `CC(C)(C)c1nc(N2CC(F)(F)C[C@@H]2CO)c2nnn(Cc3ccccc3Cl)c2n1` [Example 94, {(R)-1-[5-tert-Butyl-3-(2-chloro-benzyl)-3H-[1,2,3]triazolo[4,5-d]pyrimidin-7-yl]-4,4-difluoro-pyrrolidin-2-yl}-methanol], the concentration for a half-maximal effect (EC50) in assay [1] is 1 nM; in assay [2], above 10000 nM.
In the case of `CC(C)(C)c1nc(N2CCC(O)C2)c2nnn(Cc3ccccc3Cl)c2n1` (centres unmarked) [Example 204, 1-[5-tert-Butyl-3-(2-chloro-benzyl)-3H-[1,2,3]triazolo[4,5-d]pyrimidin-7-yl]-pyrrolidin-3-ol], the EC50 in assay [1] is 0.5 nM; in assay [2], above 10000 nM.

The values are drawn from patent US8741906B2 (priority 2011, dated 2014).
